Consider 14 molecules from patent US20240109865A1, “INDAZOLE COMPOUNDS AS KINASE INHIBITORS” (TYRA BIOSCIENCES, INC., priority 2020, published 2024).

One assay deals with FGFR1-BCR Ba/F3 cells (Homo sapiens, UniProt P11362). The assay is described as follows: Ba/F3 cell viability assay (CellTiter-Glo 2.0), FGFR1-BCR Ba/F3. Format: cell-based. The conditions noted are these: read-out: Ba/F3 Cells FGFR1 (IC50 nM), 48 hours, Cell Titer Glo 2.0. In a few lines:
(§1)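 Viability read as ATP luminescence (CellTiter-Glo 2.0) after 48 h compound exposure, normalized to DMSO-treated cells and fitted with a 4-parameter curve for IC50. Cells: Ba/F3 dependent on FGFR1-BCR or FGFR3-BAIAP2L1 fusion kinase; top dose 30 μM, 10-fold steps, 9 doses in triplicate.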
On the technique in general: Cellular ATP, detected with luciferase, serves as a proxy for viable cell number.

The next assay deals with FGFR1 (Homo sapiens (Human), UniProt P11362). The assay is described as follows: Kinase assay, binding constants (Kd), kinase-tagged T7 phage, qPCR. In a few lines: (§2)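 Using T7 phage lysates from BL21-derived E. coli, compounds at 0.9% final DMSO competed for kinase binding to ligand-bearing magnetic beads. After elution, qPCR measured remaining kinase, and Kds were fitted by non-linear least squares with the Hill slope fixed at −1.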
FGFR1, sequence (P11362 22-822): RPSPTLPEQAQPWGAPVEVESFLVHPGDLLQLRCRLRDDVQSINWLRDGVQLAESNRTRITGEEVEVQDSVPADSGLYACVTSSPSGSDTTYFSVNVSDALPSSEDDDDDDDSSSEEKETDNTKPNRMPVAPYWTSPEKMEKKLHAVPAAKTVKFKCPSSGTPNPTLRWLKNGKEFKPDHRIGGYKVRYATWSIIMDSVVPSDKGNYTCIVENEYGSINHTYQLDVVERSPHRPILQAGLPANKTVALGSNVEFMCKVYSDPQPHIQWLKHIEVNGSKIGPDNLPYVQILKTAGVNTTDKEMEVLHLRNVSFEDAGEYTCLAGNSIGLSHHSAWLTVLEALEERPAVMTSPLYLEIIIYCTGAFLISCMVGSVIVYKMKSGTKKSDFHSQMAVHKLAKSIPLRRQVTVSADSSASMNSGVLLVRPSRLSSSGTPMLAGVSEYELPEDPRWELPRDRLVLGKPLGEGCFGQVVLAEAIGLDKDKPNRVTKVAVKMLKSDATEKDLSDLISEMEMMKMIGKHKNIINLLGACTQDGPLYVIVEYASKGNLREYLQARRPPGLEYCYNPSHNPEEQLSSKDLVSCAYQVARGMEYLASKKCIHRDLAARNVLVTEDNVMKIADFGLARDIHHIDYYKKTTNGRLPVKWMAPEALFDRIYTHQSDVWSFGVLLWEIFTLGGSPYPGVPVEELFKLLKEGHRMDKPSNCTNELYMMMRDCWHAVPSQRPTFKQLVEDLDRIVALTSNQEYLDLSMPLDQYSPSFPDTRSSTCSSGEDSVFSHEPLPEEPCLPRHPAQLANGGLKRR
In general terms: Real-time PCR tracks product formation cycle by cycle.

The next assay concerns the target FGFR4 (Homo sapiens (Human), UniProt P22455). The description is as above. In short, it runs like this:
as §2

Another assay concerns the target FGFR3 (Homo sapiens (Human), UniProt P22607). Described as above. In short, it runs like this:
as §2

The target in another assay is FGFR2 (Homo sapiens (Human), UniProt P21802). Described as above. In a few lines: as §2
FGFR2, sequence (P21802 22-821): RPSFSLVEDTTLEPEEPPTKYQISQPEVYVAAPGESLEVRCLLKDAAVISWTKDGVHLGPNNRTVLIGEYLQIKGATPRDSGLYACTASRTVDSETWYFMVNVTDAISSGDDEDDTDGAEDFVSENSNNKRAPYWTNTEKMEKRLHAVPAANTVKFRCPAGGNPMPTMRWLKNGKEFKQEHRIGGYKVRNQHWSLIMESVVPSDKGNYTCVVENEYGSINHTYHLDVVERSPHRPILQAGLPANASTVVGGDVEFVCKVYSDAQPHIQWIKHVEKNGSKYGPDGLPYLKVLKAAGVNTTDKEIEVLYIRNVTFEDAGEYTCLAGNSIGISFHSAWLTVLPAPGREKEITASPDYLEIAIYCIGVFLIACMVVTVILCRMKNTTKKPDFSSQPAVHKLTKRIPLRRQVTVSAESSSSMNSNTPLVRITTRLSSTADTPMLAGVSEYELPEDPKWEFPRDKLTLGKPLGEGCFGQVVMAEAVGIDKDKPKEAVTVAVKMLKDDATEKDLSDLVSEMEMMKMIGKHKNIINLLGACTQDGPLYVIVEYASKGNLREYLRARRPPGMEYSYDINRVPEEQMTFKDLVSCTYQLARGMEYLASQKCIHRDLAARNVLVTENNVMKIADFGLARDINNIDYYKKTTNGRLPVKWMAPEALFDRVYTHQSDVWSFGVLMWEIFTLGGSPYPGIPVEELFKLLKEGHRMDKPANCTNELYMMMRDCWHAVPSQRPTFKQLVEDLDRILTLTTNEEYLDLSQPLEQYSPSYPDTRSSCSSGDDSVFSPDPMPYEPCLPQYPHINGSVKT
Another assay has as its target FGFR3 (V555M) (Homo sapiens (Human), UniProt P22607, V555M). The description is as above. The conditions noted are these: V555M mutant. In a few lines:
as §2

The target in assay [1] is FGFR3-BAIAP2L1 Ba/F3 cells (Homo sapiens, UniProt P22607). The assay is described as follows: Ba/F3 cell viability assay (CellTiter-Glo 2.0), FGFR3-BAIAP2L1 Ba/F3. The class given is cell-based. The conditions noted are these: for Ba/F3 FGFR1/FGFR3 Selectivity: FGFR3 > FGFR1 selectivity ratio in Ba/F3 FGFR fusion cell based assays; for IC50: read-out: Ba/F3 Cells FGFR3 (IC50 nM), FGFR3-BAIAP2L1 Ba/F3 cells, 48 hours, Cell Titer Glo 2.0. In a few lines: as §1
FGFR3-BAIAP2L1 Ba/F3 cells, sequence (P22607 23-806 limits assumed, change not shown): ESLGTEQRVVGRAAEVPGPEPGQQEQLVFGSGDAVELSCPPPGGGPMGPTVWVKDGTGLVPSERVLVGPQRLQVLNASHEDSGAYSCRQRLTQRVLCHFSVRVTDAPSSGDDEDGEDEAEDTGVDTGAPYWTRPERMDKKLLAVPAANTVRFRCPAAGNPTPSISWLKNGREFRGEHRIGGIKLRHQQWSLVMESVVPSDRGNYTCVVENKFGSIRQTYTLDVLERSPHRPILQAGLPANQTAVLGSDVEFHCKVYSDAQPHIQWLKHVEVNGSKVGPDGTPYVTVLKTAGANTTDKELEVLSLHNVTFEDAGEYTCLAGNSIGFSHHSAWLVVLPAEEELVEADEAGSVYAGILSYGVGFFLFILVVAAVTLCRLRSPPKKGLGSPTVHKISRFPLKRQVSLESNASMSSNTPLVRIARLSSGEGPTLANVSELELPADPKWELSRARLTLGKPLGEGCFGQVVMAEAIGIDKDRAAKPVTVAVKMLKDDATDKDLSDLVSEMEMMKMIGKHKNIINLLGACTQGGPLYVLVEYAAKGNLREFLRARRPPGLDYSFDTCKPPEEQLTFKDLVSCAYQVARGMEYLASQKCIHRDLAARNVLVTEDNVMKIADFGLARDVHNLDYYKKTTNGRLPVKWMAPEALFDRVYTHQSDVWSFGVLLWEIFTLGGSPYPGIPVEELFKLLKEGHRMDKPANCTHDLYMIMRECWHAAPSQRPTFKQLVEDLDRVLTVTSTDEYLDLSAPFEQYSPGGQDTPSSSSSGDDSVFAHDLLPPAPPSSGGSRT

FGFR3, sequence (P22607 23-806): as the sequence (P22607 23-806 limits assumed, change not shown) above
FGFR4, sequence (P22455 22-802): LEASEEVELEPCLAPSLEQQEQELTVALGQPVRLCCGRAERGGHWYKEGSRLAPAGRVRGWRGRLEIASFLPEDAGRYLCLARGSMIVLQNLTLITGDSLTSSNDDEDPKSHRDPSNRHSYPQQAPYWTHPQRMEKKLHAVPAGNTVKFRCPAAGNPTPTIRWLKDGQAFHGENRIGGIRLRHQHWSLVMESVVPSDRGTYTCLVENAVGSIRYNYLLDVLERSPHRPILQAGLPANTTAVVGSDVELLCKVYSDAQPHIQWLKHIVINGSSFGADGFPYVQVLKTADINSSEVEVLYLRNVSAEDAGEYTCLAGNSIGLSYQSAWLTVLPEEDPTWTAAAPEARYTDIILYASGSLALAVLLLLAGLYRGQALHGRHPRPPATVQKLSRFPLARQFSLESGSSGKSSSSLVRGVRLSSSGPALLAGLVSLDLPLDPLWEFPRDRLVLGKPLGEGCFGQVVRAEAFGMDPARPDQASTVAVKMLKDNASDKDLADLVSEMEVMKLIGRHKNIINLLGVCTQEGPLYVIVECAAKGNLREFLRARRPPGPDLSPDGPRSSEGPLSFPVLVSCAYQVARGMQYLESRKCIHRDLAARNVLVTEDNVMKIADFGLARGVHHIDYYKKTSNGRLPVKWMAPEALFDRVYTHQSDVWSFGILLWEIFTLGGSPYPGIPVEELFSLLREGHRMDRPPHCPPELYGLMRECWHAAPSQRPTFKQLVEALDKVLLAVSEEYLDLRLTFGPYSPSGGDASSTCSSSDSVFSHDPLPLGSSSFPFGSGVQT
FGFR3 (V555M), sequence (P22607 23-806 V555M): as the sequence (P22607 23-806 limits assumed, change not shown) above, with V533M counted along it
FGFR1-BCR Ba/F3 cells, sequence (P11362 22-822 limits assumed, change not shown): as the sequence (P11362 22-822) above

Consider `CCN1CC[C@@H](n2cc(-c3n[nH]c4ccc(O[C@H](C)c5c(Cl)cncc5Cl)cc34)cn2)C1` [Example 91, 5-[(1R)-1-(3,5-dichloro-4-pyridyl)ethoxy]-3-[1-[(3R)-1-ethylpyrrolidin-3-yl]pyrazol-4-yl]-1H-indazole], for which the IC50 on FGFR1-BCR Ba/F3 cells was in the range of 100 to 300 nM; in assay [1] it was 1 to 20 nM. Besides, the Kd – broadly, the concentration at which binding is half-saturated – is 1 to 20 nM on FGFR1; 20 to 100 nM at FGFR4; 1 to 20 nM on FGFR3; 1 to 20 nM on FGFR2; 1 to 20 nM on FGFR3 (V555M). Besides, the “Ba/F3 FGFR1/FGFR3 Selectivity” value in assay [1] was determined as 8.

Regarding `Cc1ncc(Cl)c([C@@H](C)Oc2ccc3[nH]nc(-c4cnn(C5CCNCC5)c4)c3c2)c1Cl` [Example 92, 5-[(1R)-1-(3,5-dichloro-2-methyl-4-pyridyl)ethoxy]-3-[1-(4-piperidyl)pyrazol-4-yl]-1H-indazole], the IC50 fell in the range of 100 to 300 nM on FGFR1-BCR Ba/F3 cells and 20 to 100 nM in assay [1]. Also, the Kd on FGFR1 is 1 to 20 nM; at FGFR4, 20 to 100 nM; on FGFR3 it was 1 to 20 nM; on FGFR2, 1 to 20 nM; on FGFR3 (V555M), 1 to 20 nM. The “Ba/F3 FGFR1/FGFR3 Selectivity” value in assay [1] turned out to be 18.

Take `C[C@@H](Oc1ccc2[nH]nc(-c3ccc(N4CC5(CCN5S(C)(=O)=O)C4)nc3)c2c1)c1c(Cl)cncc1Cl` [Example 100, 5-[(1R)-1-(3,5-dichloro-4-pyridyl)ethoxy]-3-[6-(1-methylsulfonyl-1,6-diazaspiro[3.3]heptan-6-yl)-3-pyridyl]-1H-indazole]: the results for the IC50 (at FGFR1-BCR Ba/F3 cells; in assay [1]) were more than 300 nM and 1 to 20 nM, respectively. Further, the Kd on FGFR1, on FGFR4, on FGFR3, on FGFR2 and at FGFR3 (V555M) was 1 to 20 nM in each case. For the same molecule, the “Ba/F3 FGFR1/FGFR3 Selectivity” value in assay [1] amounted to 22.

Turning to `Cc1ncc(Cl)c([C@@H](C)Oc2ccc3[nH]nc(-c4cnn(C5CCOCC5)c4)c3c2)c1Cl` [Example 104, 5-[(1R)-1-(3,5-dichloro-2-methyl-4-pyridyl)ethoxy]-3-(1-tetrahydropyran-4-ylpyrazol-4-yl)-1H-indazole], the IC50 on FGFR1-BCR Ba/F3 cells was more than 300 nM; in assay [1], 20 to 100 nM. The Kd on FGFR1 is 20 to 100 nM; at FGFR4, 20 to 100 nM; on FGFR3, 1 to 20 nM; on FGFR2, 1 to 20 nM; at FGFR3 (V555M) it was 1 to 20 nM. For the same molecule, the “Ba/F3 FGFR1/FGFR3 Selectivity” value in assay [1] is given as 10.

As to `CC(Oc1ccc2[nH]nc(-c3cnn(C4CCN(C5COC5)CC4)c3)c2c1)c1c(Cl)ccnc1Cl` (stereo not shown) [Example 108, 5-[1-(2,4-dichloro-3-pyridyl)ethoxy]-3-[1-[1-(oxetan-3-yl)-4-piperidyl]pyrazol-4-yl]-1H-indazole], the IC50 at FGFR1-BCR Ba/F3 cells is 100 to 300 nM; in assay [1], 1 to 20 nM. For the same molecule, the Kd at FGFR1 is 20 to 100 nM; at FGFR4, 20 to 100 nM; at FGFR3 it was 1 to 20 nM; at FGFR2, 1 to 20 nM; at FGFR3 (V555M), 1 to 20 nM. In assay [1], the “Ba/F3 FGFR1/FGFR3 Selectivity” value is 14.

In the case of `C[C@@H](Oc1ccc2[nH]nc(-c3cnn(C4CCS(=O)(=O)CC4)c3)c2c1)c1c(Cl)cncc1Cl` [Example 114, 4-[4-[5-[(1R)-1-(3,5-dichloro-4-pyridyl)ethoxy]-1H-indazol-3-yl]pyrazol-1-yl]thiane 1,1-dioxide], the IC50 was 100 to 300 nM on FGFR1-BCR Ba/F3 cells and 20 to 100 nM in assay [1]. The Kd at FGFR1 was 1 to 20 nM; on FGFR4 it was 20 to 100 nM; on FGFR3 it was 1 to 20 nM; at FGFR2, 1 to 20 nM; at FGFR3 (V555M), 1 to 20 nM. Moreover, the “Ba/F3 FGFR1/FGFR3 Selectivity” value in assay [1] was found to be 12.

Turning to `Cc1ncc(Cl)c([C@@H](C)Oc2ccc3[nH]nc(-c4cnn(C5CCS(=O)(=O)CC5)c4)c3c2)c1Cl` [Example 116, 4-[4-[5-[(1R)-1-(3,5-dichloro-2-methyl-4-pyridyl)ethoxy]-1H-indazol-3-yl]pyrazol-1-yl]thiane 1,1-dioxide], the IC50 on FGFR1-BCR Ba/F3 cells fell in the range of 100 to 300 nM; in assay [1], 1 to 20 nM. Moreover, the Kd is 20 to 100 nM at FGFR1; 20 to 100 nM on FGFR4; 1 to 20 nM at FGFR3; 20 to 100 nM on FGFR2; 1 to 20 nM at FGFR3 (V555M). The “Ba/F3 FGFR1/FGFR3 Selectivity” value in assay [1] is 12.

Regarding `CCS(=O)(=O)N1CC2(CN(c3ncc(-c4n[nH]c5ccc(O[C@H](C)c6c(Cl)cncc6Cl)cc45)cn3)C2)C1` [Example 128, 5-[(1R)-1-(3,5-dichloro-4-pyridyl)ethoxy]-3-[2-(2-ethylsulfonyl-2,6-diazaspiro[3.3]heptan-6-yl)pyrimidin-5-yl]-1H-indazole], the IC50 at FGFR1-BCR Ba/F3 cells is more than 300 nM; in assay [1], 20 to 100 nM. Moreover, the Kd lay within 20 to 100 nM at FGFR1; 1 to 20 nM on FGFR4; 1 to 20 nM on FGFR3; 20 to 100 nM on FGFR2; 1 to 20 nM on FGFR3 (V555M). For the same molecule, in assay [1], the “Ba/F3 FGFR1/FGFR3 Selectivity” value is listed as 8.

Consider `C[C@@H](Oc1ccc2[nH]nc(-c3cnc(N4CC5(CCCS(=O)(=O)C5)C4)nc3)c2c1)c1c(Cl)cncc1Cl` [Example 129, 2-[5-[5-[(1R)-1-(3,5-dichloro-4-pyridyl)ethoxy]-1H-indazol-3-yl]pyrimidin-2-yl]-6λ^6-thia-2-azaspiro[3.5]nonane 6,6-dioxide], for which the IC50 at FGFR1-BCR Ba/F3 cells was in the range of 100 to 300 nM; in assay [1], 20 to 100 nM. The Kd on FGFR1 fell in the range of 20 to 100 nM; at FGFR4, 1 to 20 nM; on FGFR3 it was 1 to 20 nM; at FGFR2, 20 to 100 nM; on FGFR3 (V555M) it was 1 to 20 nM. For the same molecule, the “Ba/F3 FGFR1/FGFR3 Selectivity” value in assay [1] was 6.

With `CCOC(=O)N1CCC2(CC1)CN(c1ccc(-c3n[nH]c4ccc(O[C@H](C)c5c(Cl)cncc5Cl)cc34)cn1)C2` [Example 130, ethyl 2-[5-[5-[(1R)-1-(3,5-dichloro-4-pyridyl)ethoxy]-1H-indazol-3-yl]-2-pyridyl]-2,7-diazaspiro[3.5]nonane-7-carboxylate], the values for the IC50 (at FGFR1-BCR Ba/F3 cells; in assay [1]) were more than 300 nM and 20 to 100 nM, respectively. Besides, the Kd is 20 to 100 nM at FGFR1; 1 to 20 nM at FGFR4; 1 to 20 nM on FGFR3; 20 to 100 nM at FGFR2; 1 to 20 nM on FGFR3 (V555M). In assay [1], the “Ba/F3 FGFR1/FGFR3 Selectivity” value is recorded as 12.

Take `CCOC(=O)N1CCCC2(C1)CN(c1ncc(-c3n[nH]c4ccc(O[C@H](C)c5c(Cl)cncc5Cl)cc34)cn1)C2` [Example 131, ethyl 2-[5-[5-[(1R)-1-(3,5-dichloro-4-pyridyl)ethoxy]-1H-indazol-3-yl]pyrimidin-2-yl]-2,8-diazaspiro[3.5]nonane-8-carboxylate]: the IC50 on FGFR1-BCR Ba/F3 cells is more than 300 nM; in assay [1] it was 100 to 300 nM. Moreover, the Kd on FGFR1 is 100 to 300 nM; on FGFR4, 1 to 20 nM; at FGFR3, 1 to 20 nM; at FGFR2 it was 100 to 300 nM; at FGFR3 (V555M) it was 1 to 20 nM. Besides, in assay [1], the “Ba/F3 FGFR1/FGFR3 Selectivity” value came out at 5.

As to `CC(C)OC(=O)N1CCCC2(C1)CN(c1ncc(-c3n[nH]c4ccc(O[C@H](C)c5c(Cl)cncc5Cl)cc34)cn1)C2` [Example 135, isopropyl 2-[5-[5-[(1R)-1-(3,5-dichloro-4-pyridyl)ethoxy]-1H-indazol-3-yl]pyrimidin-2-yl]-2,8-diazaspiro[3.5]nonane-8-carboxylate], the values for the IC50 (on FGFR1-BCR Ba/F3 cells; in assay [1]) were more than 300 nM and 100 to 300 nM, respectively. In addition, the Kd is more than 300 nM on FGFR1; 1 to 20 nM on FGFR4; 20 to 100 nM at FGFR3; more than 300 nM on FGFR2; 1 to 20 nM on FGFR3 (V555M). Besides, the “Ba/F3 FGFR1/FGFR3 Selectivity” value in assay [1] was 9.

As to `COC(=O)N1CCC2(CC1)CN(c1ncc(-c3n[nH]c4ccc(O[C@H](C)c5c(Cl)cncc5Cl)cc34)cn1)C2` [Example 136, methyl 2-[5-[5-[(1R)-1-(3,5-dichloro-4-pyridyl)ethoxy]-1H-indazol-3-yl]pyrimidin-2-yl]-2,7-diazaspiro[3.5]nonane-7-carboxylate], the IC50 on FGFR1-BCR Ba/F3 cells was more than 300 nM; in assay [1] it was 20 to 100 nM. In addition, the Kd lay within 20 to 100 nM on FGFR1; 1 to 20 nM at FGFR4; 1 to 20 nM at FGFR3; 1 to 20 nM on FGFR2; 1 to 20 nM at FGFR3 (V555M). In assay [1], the “Ba/F3 FGFR1/FGFR3 Selectivity” value turned out to be 6.

In the case of `C[C@@H](Oc1ccc2[nH]nc(-c3cnc(N4CC5(CCN(S(C)(=O)=O)CC5)C4)nc3)c2c1)c1c(Cl)cncc1Cl` [Example 137, 5-[(1R)-1-(3,5-dichloro-4-pyridyl)ethoxy]-3-[2-(7-methylsulfonyl-2,7-diazaspiro[3.5]nonan-2-yl)pyrimidin-5-yl]-1H-indazole], the IC50 was in the range of 100 to 300 nM at FGFR1-BCR Ba/F3 cells and 1 to 20 nM in assay [1]. In addition, the Kd at FGFR1 was 20 to 100 nM; at FGFR4, 1 to 20 nM; at FGFR3, 1 to 20 nM; at FGFR2, 20 to 100 nM; at FGFR3 (V555M), 1 to 20 nM. The “Ba/F3 FGFR1/FGFR3 Selectivity” value in assay [1] came out at 11.
